Experimental data published in ChEMBL document CHEMBL1135363, “N-acyl-L-phenylalanine derivatives as potent VLA-4 antagonists that mimic a cyclic peptide conformation” (Bioorg Med Chem Lett, 2002).

Key:
Integrin alpha-4/beta-1 [1] = target: T1, Integrin alpha-4/beta-1 (Homo sapiens, UniProt P05556+P13612); assay: Concentration required to inhibit the VCAM-Very late antigen4 (VLA4) interaction in Ramos cell-based assay; type: functional
Integrin alpha-4/beta-1 [2] = target: T1, Integrin alpha-4/beta-1; assay: Concentration required to inhibit the VCAM-Very late antigen4 (VLA4) interaction in ELISA cell-based assay; type: functional

T1 sequence (P05556 whole entry): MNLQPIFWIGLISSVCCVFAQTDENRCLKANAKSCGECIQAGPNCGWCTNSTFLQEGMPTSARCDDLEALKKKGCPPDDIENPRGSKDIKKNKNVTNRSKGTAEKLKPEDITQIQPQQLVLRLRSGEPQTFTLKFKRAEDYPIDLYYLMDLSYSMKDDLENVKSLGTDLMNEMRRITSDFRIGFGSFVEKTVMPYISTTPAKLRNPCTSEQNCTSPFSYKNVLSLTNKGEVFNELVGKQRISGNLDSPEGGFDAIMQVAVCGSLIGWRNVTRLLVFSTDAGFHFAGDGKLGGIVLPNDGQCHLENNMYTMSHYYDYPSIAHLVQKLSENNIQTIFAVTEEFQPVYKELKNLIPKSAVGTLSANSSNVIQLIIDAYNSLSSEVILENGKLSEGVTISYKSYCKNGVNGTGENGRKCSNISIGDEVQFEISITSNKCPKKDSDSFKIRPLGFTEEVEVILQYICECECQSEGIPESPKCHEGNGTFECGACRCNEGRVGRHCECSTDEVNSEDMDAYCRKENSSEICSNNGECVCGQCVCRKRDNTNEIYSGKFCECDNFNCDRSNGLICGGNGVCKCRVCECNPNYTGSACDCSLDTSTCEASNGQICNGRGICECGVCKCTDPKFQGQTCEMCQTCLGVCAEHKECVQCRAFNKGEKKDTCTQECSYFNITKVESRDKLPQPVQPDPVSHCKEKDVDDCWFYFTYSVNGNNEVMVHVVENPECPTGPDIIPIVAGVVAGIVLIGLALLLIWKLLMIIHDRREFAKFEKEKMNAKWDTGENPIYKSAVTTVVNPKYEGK
T1 sequence (P13612 whole entry): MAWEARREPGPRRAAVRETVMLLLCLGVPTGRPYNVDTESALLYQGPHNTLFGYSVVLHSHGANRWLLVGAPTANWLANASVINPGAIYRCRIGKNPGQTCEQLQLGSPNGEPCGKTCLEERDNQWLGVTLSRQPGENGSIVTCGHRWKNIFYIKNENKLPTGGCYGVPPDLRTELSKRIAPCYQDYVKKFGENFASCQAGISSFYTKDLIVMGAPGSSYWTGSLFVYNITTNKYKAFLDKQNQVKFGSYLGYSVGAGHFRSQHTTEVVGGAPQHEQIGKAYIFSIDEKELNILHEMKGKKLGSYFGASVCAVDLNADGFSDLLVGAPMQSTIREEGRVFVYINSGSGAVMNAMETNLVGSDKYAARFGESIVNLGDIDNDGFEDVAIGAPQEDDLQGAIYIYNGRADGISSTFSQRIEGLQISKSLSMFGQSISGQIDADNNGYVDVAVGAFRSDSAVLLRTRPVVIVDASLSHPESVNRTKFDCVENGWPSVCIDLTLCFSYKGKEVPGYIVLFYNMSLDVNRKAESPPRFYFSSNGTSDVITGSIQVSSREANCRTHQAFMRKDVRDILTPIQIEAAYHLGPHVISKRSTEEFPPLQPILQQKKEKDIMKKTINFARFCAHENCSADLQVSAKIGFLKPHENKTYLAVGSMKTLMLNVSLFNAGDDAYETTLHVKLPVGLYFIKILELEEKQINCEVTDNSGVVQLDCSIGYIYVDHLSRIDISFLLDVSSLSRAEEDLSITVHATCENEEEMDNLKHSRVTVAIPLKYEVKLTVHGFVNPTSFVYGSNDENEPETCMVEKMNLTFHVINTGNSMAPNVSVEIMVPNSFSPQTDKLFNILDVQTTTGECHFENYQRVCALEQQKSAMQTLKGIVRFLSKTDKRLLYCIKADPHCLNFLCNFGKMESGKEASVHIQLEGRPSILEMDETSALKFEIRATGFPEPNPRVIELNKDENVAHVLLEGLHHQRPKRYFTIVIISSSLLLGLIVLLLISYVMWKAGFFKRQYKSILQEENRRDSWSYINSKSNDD

SMILES | IC50 (Integrin alpha-4/beta-1 [1]) | IC50 (Integrin alpha-4/beta-1 [2])
CCN(CC)C(=O)C(Cc1ccc(O)cc1)NC(=O)c1ccc(C[C@H](NC(=O)[C@@H]2CCC(=O)N2Cc2ccccc2)C(=O)O)cc1 (stereo not given in full) | 550 nM | 5 nM
O=C(O)[C@H](Cc1ccc(C(=O)N2CCN(C(=O)c3ccccc3)CC2)cc1)NC(=O)[C@@H]1CCC(=O)N1Cc1ccccc1 | 960 nM | 3 nM
COc1ccc(CNC(=O)c2ccc(C[C@H](NC(=O)[C@@H]3CCC(=O)N3Cc3ccccc3)C(=O)O)cc2)cc1 | – | 61 nM
CC(=O)N[C@@H](Cc1ccc(O)cc1)C(=O)Nc1ccc(C[C@H](NC(=O)[C@H]2CCC(=O)N2Cc2ccccc2)C(=O)O)cc1 | 2100 nM | 6.5 nM
O=C(O)[C@H](Cc1ccc(C(=O)N2CCN(C(=O)c3ccc(O)cc3)CC2)cc1)NC(=O)[C@@H]1CCC(=O)N1Cc1ccccc1 | 1700 nM | 3 nM
O=C(Nc1ccccc1)c1ccc(C[C@H](NC(=O)[C@@H]2CCC(=O)N2Cc2ccccc2)C(=O)O)cc1 | – | 57 nM
O=C(Nc1ccc(C[C@H](NC(=O)[C@H]2CCC(=O)N2Cc2ccccc2)C(=O)O)cc1)c1c(Cl)cccc1Cl | – | 0.37 nM
CC(=O)N1CCN(C(=O)c2ccc(C[C@H](NC(=O)[C@@H]3CCC(=O)N3Cc3ccccc3)C(=O)O)cc2)CC1 | 5500 nM | 7 nM
O=C(O)[C@H](Cc1cccc(C(=O)N2CCN(S(=O)(=O)c3ccccc3)CC2)c1)NC(=O)[C@@H]1CCC(=O)N1Cc1ccccc1 | – | 60 nM

Further molecules by falling IC50 (Integrin alpha-4/beta-1 [2]), results first:

IC50 (Integrin alpha-4/beta-1 [1]) | IC50 (Integrin alpha-4/beta-1 [2]) | SMILES
24400 nM | 240 nM | CCN(CC)C(=O)C(Cc1ccc(O)cc1)NC(=O)c1cccc(C[C@H](NC(=O)[C@@H]2CCC(=O)N2Cc2ccccc2)C(=O)O)c1 (stereo not given in full)
– | 120 nM | O=C(O)[C@H](Cc1cccc(C(=O)N2CCN(C(=O)c3ccccc3)CC2)c1)NC(=O)[C@@H]1CCC(=O)N1Cc1ccccc1
7800 nM | 73 nM | COc1ccc(S(=O)(=O)N2CCN(C(=O)c3cccc(C[C@H](NC(=O)[C@@H]4CCC(=O)N4Cc4ccccc4)C(=O)O)c3)CC2)cc1
– | 27 nM | C[C@H](NC(=O)c1ccc(C[C@H](NC(=O)[C@@H]2CCC(=O)N2Cc2ccccc2)C(=O)O)cc1)c1ccccc1
9530 nM | 12 nM | COc1ccc(S(=O)(=O)N2CCN(C(=O)c3ccc(C[C@H](NC(=O)[C@@H]4CCC(=O)N4Cc4ccccc4)C(=O)O)cc3)CC2)cc1
2200 nM | 11 nM | O=C(O)[C@H](Cc1ccc(C(=O)N2CCN(S(=O)(=O)c3ccccc3)CC2)cc1)NC(=O)[C@@H]1CCC(=O)N1Cc1ccccc1
940 nM | 4 nM | CC(=O)c1ccccc1NC(=O)c1ccc(C[C@H](NC(=O)[C@@H]2CCC(=O)N2Cc2ccccc2)C(=O)O)cc1
320 nM | 4 nM | COc1ccc(C(=O)N2CCN(C(=O)c3ccc(C[C@H](NC(=O)[C@@H]4CCC(=O)N4Cc4ccccc4)C(=O)O)cc3)CC2)cc1
470 nM | 3 nM | O=C(O)[C@H](Cc1ccc(C(=O)N2CCN(C(=O)c3cccc(O)c3)CC2)cc1)NC(=O)[C@@H]1CCC(=O)N1Cc1ccccc1
